Laboratory results reported in PMC5829251, “NAD^+ analog reveals PARP-1 substrate-blocking mechanism and allosteric communication from catalytic center to DNA-binding domains” (Nature Communications, 2018).
Values joined by “and” are separate entries in the source; they are usually repeats but may differ in a detail not shown here. Equal entries are not always repeated. “Also recorded” adds a separate entry of the source.

How the values were obtained:
Format in all cases: binding
[1] = target: T1, full-length PARP-1 E763/D766/D770A (Homo sapiens, UniProt P09874, D766A/D770A/E763A); test: ITC, full-length PARP-1 E763/D766/D770A; settings: for n (stoichiometry): FL E763/D766/D770A; for KD / Kd: FL E763/D766/D770A 40 μM, without DNA, compound 525 μM titrated, 25°C
T1 construct: Full-length PARP-1 WT (residues 1–1014) was cloned in pET28 vector and site-directed mutagenesis was performed; made in house; host or cells: E. coli
T1 sequence (P09874 whole entry E763A/D766A/D770A, the tested form may be a part): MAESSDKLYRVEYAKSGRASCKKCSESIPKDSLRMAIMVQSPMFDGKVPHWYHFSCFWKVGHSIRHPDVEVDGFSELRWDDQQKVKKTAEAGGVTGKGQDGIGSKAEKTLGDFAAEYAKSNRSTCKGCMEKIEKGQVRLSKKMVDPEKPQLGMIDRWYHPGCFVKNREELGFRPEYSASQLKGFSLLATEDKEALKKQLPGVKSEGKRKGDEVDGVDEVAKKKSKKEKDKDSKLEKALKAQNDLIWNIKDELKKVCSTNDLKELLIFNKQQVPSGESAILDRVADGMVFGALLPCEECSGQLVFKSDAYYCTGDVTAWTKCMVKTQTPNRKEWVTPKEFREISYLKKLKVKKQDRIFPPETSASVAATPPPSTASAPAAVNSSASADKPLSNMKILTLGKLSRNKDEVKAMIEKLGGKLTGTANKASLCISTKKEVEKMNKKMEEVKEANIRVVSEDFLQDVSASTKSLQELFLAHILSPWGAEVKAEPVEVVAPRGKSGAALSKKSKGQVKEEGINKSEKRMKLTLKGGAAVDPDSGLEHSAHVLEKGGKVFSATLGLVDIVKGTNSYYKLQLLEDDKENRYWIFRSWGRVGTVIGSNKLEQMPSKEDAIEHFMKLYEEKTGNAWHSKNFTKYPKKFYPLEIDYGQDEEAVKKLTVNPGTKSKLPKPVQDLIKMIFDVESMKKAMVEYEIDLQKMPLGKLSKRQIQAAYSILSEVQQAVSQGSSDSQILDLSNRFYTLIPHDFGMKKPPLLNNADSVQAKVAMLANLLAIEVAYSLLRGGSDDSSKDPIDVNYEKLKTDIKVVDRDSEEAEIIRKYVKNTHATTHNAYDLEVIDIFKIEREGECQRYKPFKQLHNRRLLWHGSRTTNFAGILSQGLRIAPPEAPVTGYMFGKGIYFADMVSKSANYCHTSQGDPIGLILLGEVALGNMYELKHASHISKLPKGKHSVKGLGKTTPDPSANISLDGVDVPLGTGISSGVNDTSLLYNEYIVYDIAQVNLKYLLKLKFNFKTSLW
Description: (§1) ITC experiments were performed using a MicroCal iTC200 calorimeter (GE Healthcare). BAD or benzamide at 525 μM was titrated into PARP-1 protein (50 μM for CAT WT and CAT ΔHD, 40 μM for full-length PARP-1 WT and mutants) or PARP-1 protein with DNA (20–40 μM) at 25°C. Prior to the experiment, proteins and DNA were dialyzed in 25 mM Hepes pH 8.0, 150 mM NaCl, 1 mM EDTA, and 0.1 mM TCEP. BAD and benzamide were diluted in the dialysis buffer. PARP-1/DNA complexes were assembled and incubated at RT for 30 min prior to performing the experiment. Experiments were typically designed as follows: a first injection of 0.2 μL was followed by 16 injections of 2.5 μL with a spacing of 100 s between injections. Excess heat upon each injection was integrated using an automatically adjusted base line and derived values corrected by heat of dilution. Data analysis and curve fitting were conducted using Origin 7 software. The ITC experiment for each sample was performed either two (PARP-1 WT with benzamide, PARP-1 E763/D766/D770A with benzamide, PARP-1 D766/D770A with BAD) or three times (the remaining eight samples). Table 2 lists the average KD value and stoichiometry (n) for the replicates, and the reported errors are the calculated standard deviations (representing the range of values for experiments repeated two times). We anticipate that the sub-stoichiometric n values for CAT constructs results from either the active fraction being < 100%, or the protein concentration determination being not entirely accurate. The analysis of full-length PARP-1 yielded n values around the expected value of 1.

[2] = target: T2, PARP-1 triple mutant E763/D766/D770A (Homo sapiens, UniProt P09874, D766A/D770A/E763A); test: DSF, full-length PARP-1 E763/D766/D770A; settings: BAD 1250 μM
T2 construct: Full-length PARP-1 WT (residues 1–1014) was cloned in pET28 vector and site-directed mutagenesis was performed; made in house; host or cells: E. coli
T2 sequence (P09874 whole entry E763A/D766A/D770A, the tested form may be a part): as above
Description: (§2) DSF experiments were performed as described, [13] using 5 µM protein, 2.5 µM DNA when indicated and various concentrations of compound (BAD, carba-NAD^+, benzamide, and ADP-ribose) as indicated in Fig. 1 and Fig. 3. Experiments were performed on a Roche LightCycler 480 RT-PCR. Reactions including DNA were performed with a 26- or 28-base pair (bp) unphosphorylated oligonucleotide for PARP-1, a 28-bp 5´-phosphorylated (5´P) oligonucleotide for PARP-2, and a 47-bp oligonucleotide including a central 5´P nick for PARP-3^13 in the following buffer: 25 mM Hepes pH 8.0, 150 mM NaCl, 1 mM EDTA, and 0.1 mM TCEP. Reactions with PARP-3 were conducted at lower ionic strength to allow binding to DNA as described (25 mM Hepes pH 8.0, 50 mM NaCl, 1 mM EDTA and 0.1 mM TCEP)[13]. ΔTM values were calculated by subtracting the TM determined for the protein in the absence of compound from the TM determined in the presence of compound. Experiments were performed in triplicate and a Boltzmann sigmoid was fit to the data to determine the TM values (KaleidaGraph).

PARP-1 WT = target: T3, PARP-1 WT (Homo sapiens, UniProt P09874); test: Fluorescence polarization DNA competition assay, PARP-1 WT; settings: 40 nM PARP-1 WT, 20 nM labeled DNA, compound 500 μM, competitor 100 nM
T3 construct: Full-length PARP-1 WT (residues 1–1014) was cloned in pET28 vector; made in house; host or cells: E. coli
T3 sequence (P09874 whole entry, the tested form may be a part): as the sequence (P09874 whole entry E763A/D766A/D770A, the tested form may be a part) above, with A763E, A766D, A770D counted along it
Description: For the DNA competition assay, 40 nM PARP-1 WT, or PARP-1 ΔHD, was incubated with 20 nM of dumbbell DNA with a central nick carrying an internal fluorescent FAM group (5′-GCT GAG C/FAMT/T CTGGTGAAGCTCAGCTCGCGGCAGCTGGTGCTGCCGCGA-3′) for 30 min at RT in 12 mM Hepes pH 8.0, 60 mM KCl, 8 mM MgCl2, 4% glycerol, 5.7 mM beta-mercaptoethanol, 0.05 mg per ml bovine serm albumin with or without BAD or benzamide (500 μM). A competitor unlabeled DNA of the same sequence was added at 100 nM and FP was measured over time on a VictorV plate reader (Perkin Elmer). For the DNA affinity measurement assay, increasing concentrations of PARP-1 WT were incubated for 30 min at RT with 5 nM of dumbbell DNA probe carrying a nick (described above) in the absence or presence of BAD or benzamide (100 μM) in the following buffer: 12 mM Hepes pH 8.0, 250 mM NaCl, 4% glycerol, 5.7 mM beta-mercaptoethanol, 0.05 mg per ml bovine serum albumin.

PARP-1 CAT WT = target: T4, PARP-1 CAT WT (Homo sapiens, UniProt P09874); test: Isothermal titration calorimetry (ITC), PARP-1 CAT WT
T4 construct: The PARP-1 CAT WT (residues 661–1014) was cloned in pET28 vector; made in house; host or cells: E. coli
T4 sequence (P09874 661-1014): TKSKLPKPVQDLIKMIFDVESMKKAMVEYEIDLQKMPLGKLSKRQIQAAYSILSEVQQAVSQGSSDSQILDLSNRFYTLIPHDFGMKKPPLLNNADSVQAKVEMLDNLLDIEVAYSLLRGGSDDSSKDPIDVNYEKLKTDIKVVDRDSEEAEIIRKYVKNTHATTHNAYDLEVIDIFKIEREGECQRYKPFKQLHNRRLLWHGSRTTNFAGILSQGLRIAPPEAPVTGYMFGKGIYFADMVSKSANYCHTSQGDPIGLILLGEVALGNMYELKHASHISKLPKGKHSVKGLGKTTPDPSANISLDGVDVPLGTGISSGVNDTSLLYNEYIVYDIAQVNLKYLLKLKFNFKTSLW
Description: as §1

[3] = target: T5, full-length PARP-1 D766/D770A (Homo sapiens, UniProt P09874, D766A/D770A); test: ITC, full-length PARP-1 D766/D770A; settings: for n (stoichiometry): FL D766/D770A; for KD / Kd: FL D766/D770A 40 μM, without DNA, compound 525 μM titrated, 25°C
T5 construct: Full-length PARP-1 WT (residues 1–1014) was cloned in pET28 vector and site-directed mutagenesis was performed; made in house; host or cells: E. coli
T5 sequence (P09874 whole entry D766A/D770A, the tested form may be a part): as the sequence (P09874 whole entry E763A/D766A/D770A, the tested form may be a part) above, with A763E counted along it
Description: as §1

full-length PARP-1 WT = target: T6, full-length PARP-1 WT (Homo sapiens, UniProt P09874); test: ITC, full-length PARP-1 WT with or without DNA; settings: for KD / Kd: compound 525 μM titrated, 25°C
T6 construct: Full-length PARP-1 WT (residues 1–1014) was cloned in pET28 vector; made in house; host or cells: E. coli
T6 sequence (P09874 whole entry, the tested form may be a part): as the sequence (P09874 whole entry E763A/D766A/D770A, the tested form may be a part) above, with A763E, A766D, A770D counted along it
Description: as §1

Tankyrase 1 CAT = target: T7, Tankyrase 1 CAT (Homo sapiens, UniProt O95271); test: DSF, Tankyrase 1 CAT
T7 construct: Tankyrase 1 CAT (residues 1093–1327) was cloned in pET24; made in house
T7 sequence (O95271 1093-1327): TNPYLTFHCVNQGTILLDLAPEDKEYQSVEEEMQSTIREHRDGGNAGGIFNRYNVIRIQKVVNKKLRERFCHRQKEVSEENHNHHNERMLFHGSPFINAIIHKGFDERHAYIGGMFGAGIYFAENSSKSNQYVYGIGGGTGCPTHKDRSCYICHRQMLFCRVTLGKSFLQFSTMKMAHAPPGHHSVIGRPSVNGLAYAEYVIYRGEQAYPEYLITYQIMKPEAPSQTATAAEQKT
Description: as §2

[4] = CAT WT 50 μM, compound 525 μM titrated, 25°C

Compound	calculated KD for BAD lower than observed for all other proteins ([1]; E763/D766/D770A versus all other proteins)	n (stoichiometry) [1]	KD [1]	Kd [1] [nM]	TM ([2]; Figure 3a, no DNA, TM without BAD 45.74, in °C (unit assumed))	TM change in the presence of BAD ([2]; did not require the presence of DNA)	exchange of PARP-1 from labeled to unlabeled competitor DNA (PARP-1 WT)	KD (PARP-1 CAT WT; [4])	n (stoichiometry) [3]	KD [3]	Kd [3] [nM]	KD (full-length PARP-1 WT; FL WT 40 μM, without DNA)	n (stoichiometry) (full-length PARP-1 WT; FL WT with DNA)	Kd (full-length PARP-1 WT; FL WT with DNA (40 μM, 8 bp-duplex))	binding to BAD based on the DSF analysis (Tankyrase 1 CAT; CAT of tankyrase 1 (no HD))	TM (Tankyrase 1 CAT; Figure 3d, TNK CAT 5 μM, BAD 4 mM, TM without BAD 53.71, in °C (unit assumed))	n (stoichiometry) (PARP-1 CAT WT; CAT WT)	Kd (PARP-1 CAT WT; [4]) [µM]	Kd (full-length PARP-1 WT; FL WT 40 μM, without DNA) [nM]	n (stoichiometry) (full-length PARP-1 WT; FL WT, without DNA)
NC(=O)c1cccc(C2OC(COP(=O)(O)OP(=O)(O)OCC3OC(n4cnc5c(N)ncnc54)C(O)C3O)C(O)C2O)c1 (stereo not shown) [BAD, benzamide adenine dinucleotide]	about 10 fold	1.00 + /− 0.13	showed evidence of binding	380	50.13	increase in TM	greatly prevented the exchange	no measureable heat exchange; also recorded: No binding	0.96 + /− 0.10	showed evidence of binding	2490	no evidence of BAD binding	1.11 + /− 0.29	1800 nM and 1810 nM	capable of binding	57.42	–	–	–	–
NC(=O)c1ccccc1 [benzamide]	–	0.89 + /− 0.07	also bound to benzamide similarly	2990	–	–	did not affect PARP-1 release	–	0.81 + /− 0.14	also bound to benzamide similarly	2810	bound to benzamide in the absence of DNA	–	–	–	–	0.49 + /− 0.02	3.79	2320	0.88 + /− 0.01
